From patent publication US8945846B2, “Mutations in the LNK gene in patients with myeloproliferative neoplasms and other hematolymphoid malignancies” (The Board of Trustees of the Leland Stanford Junior …, priority 2010, dated 2015) come the findings set out here.

Assay [1] concerns BaF3-MPL cells expressing WT or mutant LNK. Description: JAK inhibitor growth assay of BaF3-MPL cells grown with TPO. To be noted: TPO 10 ng/mL, JAK inhibitor I 0.2 μM to 5 μM, FIG. 2C. Format: cell-based. The method, then:
FIG. 2. LNK mutations cause dysregulated TPO-dependent growth and JAK2-STAT3/5 activation. BaF3-MPL cells were transduced with empty vector (EV), WT LNK (WT), or mutant LNK (DEL, E208Q, R392E). […] Viable cells were counted daily by staining with propidium iodide (PI) and quantitated with TruCount beads on a LSRII flow cytometer. Error bars represent the standard deviation of two replicates per sample. In Panel B, BaF3-MPL cells were stimulated with TPO (1 ng/ml) for the durations indicated, followed by measurement of JAK2, STAT3 and STAT5 activation via phospho-specific flow cytometry. […] Vertical lines denote the MFI of EV unstimulated cells for comparison. In Panel C, BaF3-MPL cells were cultured in the presence of DMSO control or concentrations of JAK inhibitor I ranging from 0.2 μM to 5 μM. Cumulative growth at four days (normalized to maximal growth for each cell line) is shown. Error bars represent the standard deviation of two replicates per sample.
BaF3-MPL cells were kindly provided by J. Tyner/B. Druker (Oregon Health and Sciences University, Portland, Oreg.) and were maintained in RPMI medium containing 10% FBS and IL-3 (1 ng/mL) (Peprotech, Rocky Hill, N.J.). […] Viable cells were counted daily by staining with propidium iodide (PI) and quantitated with TruCount beads (BD Biosciences, San Jose, Calif.) on a LSRII flow cytometer. […]

In a further assay the test system is JAK2-STAT3/5 activation. Description: TPO-stimulated JAK2, STAT3 and STAT5 activation by phospho-specific flow cytometry in BaF3-MPL cells. In kind it is cell-based. To be noted: BaF3-MPL cells expressing WT or mutant LNK; pre-incubated two hours with 0.2 μM to 5 μM, then TPO 10 ng/mL; FIG. 5. On the procedure: FIG. 5. Activation of JAK2-STAT3/5 in BaF3-MPL cells expressing WT or mutant LNK requires JAK activity. BaF3-MPL cells expressing WT or mutant LNK were pre-incubated with DMSO or JAK inhibitor I at concentrations ranging from 0.2 μM to 5 μM for two hours prior to stimulation with TPO (10 ng/mL). JAK2, STAT3, and STAT5 activation were then measured by phospho-specific flow cytometry. Line graphs represent % maximal activation for each cell line.
BaF3-MPL cells were starved overnight in cytokine-free media and stimulated with TPO (1 or 10 ng/mL) for time points ranging from 15 minutes to 16 hours at 37° C. Peripheral blood samples were stimulated with either TPO (50 ng/ml) or G-CSF (20 ng/ml)(Peprotech, Rocky Hill, N.J.) for 15 minutes at 37° C. PBMCs were rested in RPMI with 10% FBS for one hour at 37° C. prior to cytokine stimulation. For the JAK inhibitor experiments, PBMCs were incubated with 5 μM JAK inhibitor I (EMD/Calbiochem, San Diego, Calif.) for the final 30 minutes prior to cytokine stimulation. Following cytokine stimulation, cells were fixed in paraformaldehyde (Electron Microscopy Sciences, Hatfield, Pa.). […] Cells were measured on a BD LSRII flow cytometer. […] Flow cytometry data was obtained with FACSDiva software and analyzed using FlowJo (Tree Star, Ashland, Oreg.) or Cytobank according to standard procedures. […]
On the technique in general: In flow cytometry, cells or beads pass a laser one at a time.

In assay [2] the test system is STAT3/5 activation (pSTAT3+/5+ subpopulation). Description: Cytokine-stimulated STAT3/5 activation by phospho-specific flow cytometry in patient peripheral blood immature myeloid cells. Format: cell-based, human. The note with it: samples from LNK DEL, E208Q, JAK2 V617F, MPL W515L patients and normal donor; 5 μM for 30 minutes, then TPO 50 ng/ml or G-CSF 20 ng/ml for 15 minutes; FIG. 3A. The method, then:
FIG. 3. Identification of a cytokine-responsive pSTAT3+/pSTAT5+ population in CD34+ early progenitors from patients with LNK mutations. Peripheral blood samples from patients with the LNK DEL and E208Q mutations, as well as PMF patients with the JAK2 V617F and MPL W515L mutations, were compared with normal donor. CD3-/CD66-/CD33mid immature myeloid cells are shown in Panels A-C. In Panel A, samples were pre-incubated with either DMSO or JAK inhibitor I (5 μM) for 30 minutes, and then stimulated with either TPO (50 ng/ml) or G-CSF (20 ng/ml) for 15 minutes, prior to assessment of STAT3 and STAT5 activation by phospho-specific flow cytometry. […] For Panels A and B, numbers depicted in each quadrant represent the percentage of total cells present in each quadrant gate. […] DNA was isolated from each subset, and allele-specific quantitative PCR for the DEL mutation was performed. […]
BaF3-MPL cells were starved overnight in cytokine-free media and stimulated with TPO (1 or 10 ng/mL) for time points ranging from 15 minutes to 16 hours at 37° C. […] Cells were measured on a BD LSRII flow cytometer. […] Flow cytometry data was obtained with FACSDiva software and analyzed using FlowJo (Tree Star, Ashland, Oreg.) or Cytobank according to standard procedures. […]

As for JAK inhibitor I, the “TPO-dependent growth (cumulative growth at four days)” value in assay [1] is “remained susceptible to JAK inhibition”. For the same substance, the “Inhibition of JAK2-STAT3/5 activation” value in the assay on JAK2-STAT3/5 activation is reported as “effectively inhibited”. In assay [2], the “Effect on cytokine-responsive pSTAT3+/5+ subpopulation” value is on record as “completely eradicated”.
